According to patent US8106055B2, “Substituted amide compounds” (Gruenenthal GmbH, priority 2007, dated 2012):
Like-named read-outs stand apart in the source and are kept apart here.

Experiments:
[1] = biological target: T1, serotonin (5-HT) reuptake (Rattus norvegicus, UniProt P31652); assay: Inhibition of serotonin (5HT) reuptake in synaptosomes from rat brain; format: biochemical; settings: test concentration of 10 μM; read-out: 5-HT (inhibition of reuptake of serotonin, % inhibition)
T1 construct: synaptosomes are freshly isolated from areas of the rat brain; from tissue; host or cells: rat brain synaptosomes (P2 fraction)
T1 sequence (P31652 whole entry): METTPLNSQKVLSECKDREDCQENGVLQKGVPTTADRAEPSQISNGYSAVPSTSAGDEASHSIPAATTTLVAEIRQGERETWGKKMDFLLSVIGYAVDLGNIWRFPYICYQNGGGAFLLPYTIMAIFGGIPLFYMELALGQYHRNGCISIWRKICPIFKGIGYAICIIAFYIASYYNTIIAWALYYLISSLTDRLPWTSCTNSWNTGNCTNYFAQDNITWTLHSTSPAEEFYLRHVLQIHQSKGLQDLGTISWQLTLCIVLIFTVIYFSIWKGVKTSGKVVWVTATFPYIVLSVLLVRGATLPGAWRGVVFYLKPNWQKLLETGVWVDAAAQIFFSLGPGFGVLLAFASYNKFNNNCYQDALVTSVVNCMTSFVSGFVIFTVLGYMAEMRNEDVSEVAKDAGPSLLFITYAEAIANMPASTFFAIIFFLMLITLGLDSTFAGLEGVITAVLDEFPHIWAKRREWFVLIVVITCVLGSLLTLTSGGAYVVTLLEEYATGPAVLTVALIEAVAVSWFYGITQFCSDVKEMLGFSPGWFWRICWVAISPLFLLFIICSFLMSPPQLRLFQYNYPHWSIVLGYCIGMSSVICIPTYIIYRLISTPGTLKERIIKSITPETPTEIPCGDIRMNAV
How it was run: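 Freshly isolated rat brain synaptosomes (P2 fraction) used for 5-HT reuptake. Test compound at 10 μM, activity given as % inhibition.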

[2] = biological target: T2, human bradykinin 1 receptor (B1R) (Homo sapiens, UniProt P46663); assay: Functional investigation on the human bradykinin 1 receptor (B1R), Ca2+ FLIPR assay in CHO K1 hB1R cells; format: cell-based
T2 construct: expressed in transfected cells; host or cells: CHO K1 cells
T2 sequence (P46663 1-353): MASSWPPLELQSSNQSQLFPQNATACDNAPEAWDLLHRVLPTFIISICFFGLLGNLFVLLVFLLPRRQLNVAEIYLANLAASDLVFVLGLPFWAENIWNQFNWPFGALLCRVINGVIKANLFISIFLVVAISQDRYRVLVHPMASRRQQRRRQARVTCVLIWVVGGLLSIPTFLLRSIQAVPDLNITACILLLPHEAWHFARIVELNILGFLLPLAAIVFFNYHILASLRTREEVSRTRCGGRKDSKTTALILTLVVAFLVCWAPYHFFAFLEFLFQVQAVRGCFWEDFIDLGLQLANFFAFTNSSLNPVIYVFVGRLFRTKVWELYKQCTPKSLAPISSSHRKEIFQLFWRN
How it was run: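 Stably transfected CHO K1 cells loaded with Fluo-4; FLIPR Ca2+ fluorescence peak (ex 488/em 540 nm). Compound added first (agonism vs Lys-Des-Arg9-bradykinin ≥50 nM human, Des-Arg9-bradykinin 10 μM rat), then after 10-20 min agonist at EC80; antagonism as % inhibition, IC50 from concentration series, n=2-3, N≥2.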

[3] = CHO-K1, B1R antagonism human, test substance 10 μM, Ca2+ FLIPR, CHO K1 hB1R cells, read-out: B1R Ant. h [10 μM] % Inhibition

Row | SMILES | inhibition at 10 µM [1] [%] | B1R Ant. h [10 μM] % Inhibition ([2]; B1R antagonism human, test substance 10 μM, Ca2+ FLIPR, CHO K1 hB1R cells) [%] | inhibition at 10 µM [2, 3] [%] | inhibition at 10 µM ([2]; CHO-K1, read-out: B1R Ant. h [10 μM] % Inhibition) [%]
1 | COc1cc(C)c(S(=O)(=O)N(C)CCOCC(=O)NC2CCC(C(c3ccccc3)N(C)C)CC2)c(C)c1C (centres unmarked) [Example 80, N-(4-((dimethylamino) (phenyl)methyl)cyclohexyl)-2-(2-(4-methoxy-N,2,3,6-tetramethylphenylsulfonamido)ethoxy)acetamide] | 84 | 98 | – | –
2 | COc1cc(C)c(S(=O)(=O)N2CCN(CCOCC(=O)NC3CCC(C(c4cccc(F)c4)N(C)C)CC3)CC2)c(C)c1C (centres unmarked) [Example 76, N-(4-((dimethylamino)(3-fluorophenyl)methyl)cyclohexyl)-2-(2-(4-(4-methoxy-2,3,6-trimethylphenylsulfonyl)piperazin-1-yl)ethoxy)acetamide] | 96 | – | 52 | –
3 | CN(C)C(c1ccccc1)C1CCC(CNC(=O)COCCN(C)S(=O)(=O)c2ccc(OC(F)(F)F)cc2)CC1 (centres unmarked) [Example 53, N-((4-((dimethylamino)(phenyl)methyl)cyclohexyl)methyl)-2-(2-(N-methyl-4-(trifluoromethoxy)phenylsulfonamido)ethoxy)acetamide] | 92 | – | 19 | –
4 | Cc1ccc(S(=O)(=O)N2CCC(OCC(=O)NCC3CCC(C(c4cccs4)N(C)C)CC3)C2)cc1 (centres unmarked) [Example 68, N-((4-((dimethylamino)(thiophen-2-yl)methyl)cyclohexyl)methyl)-2-(1-tosylpyrrolidin-3-yloxy)acetamide] | 82 | – | 18 | –
5 | CN(C)C(c1cccs1)C1CCC(NC(=O)COCCN(C)S(=O)(=O)c2ccc(Cl)cc2)CC1 (centres unmarked) [Example 83, 2-(2-(4-chloro-N-methylphenylsulfonamido)ethoxy)-N-(4-((dimethylamino) (thiophen-2-yl)methyl)cyclohexyl)acetamide] | 89 | – | 7 | –
6 | COc1ccc(S(=O)(=O)N2Cc3ccccc3CC2COCC(=O)NCCC2CCC(C(c3cccs3)N(C)C)CC2)cc1 (centres unmarked) [Example 48, N-(2-(4-((dimethylamino)(thiophen-2-yl)methyl)cyclohexyl)ethyl)-2-((2-(4-methoxyphenylsulfonyl)-1,2,3,4-tetrahydroisoquinolin-3-yl)methoxy)acetamide] | 101 | – | 33 | –
7 | COc1cc(C)c(S(=O)(=O)N(C)CCOCC(=O)NCC2CCC(C(c3cccs3)N(C)C)CC2)c(C)c1C (centres unmarked) [Example 35, N-((4-((dimethylamino)(thiophen-2-yl)methyl)cyclohexyl)methyl)-2-(2-(4-methoxy-N,2,3,6-tetramethylphenylsulfonamido)ethoxy)acetamide] | 84 | – | 50 | –
8 | CN(C)C(c1cccs1)C1CCC(CCNC(=O)COC2CCN(S(=O)(=O)c3ccc(Cl)cc3)C2)CC1 (centres unmarked) [Example 66, 2-(1-(4-chlorophenylsulfonyl)pyrrolidin-3-yloxy)-N-(2-(4-((dimethylamino)(thiophen-2-yl)methyl)cyclohexyl)ethyl)acetamide] | 85 | – | -1 | –
9 | CN(C)C(c1cccs1)C1CCC(NC(=O)COC2CCCN(S(=O)(=O)c3ccccc3)C2)CC1 (centres unmarked) [Example 42, N-(4-((dimethylamino)(thiophen-2-yl)methyl)cyclohexyl)-2-(1-(phenylsulfonyl)piperidin-3-yloxy)acetamide] | 91 | – | – | -14
10 | COc1cc(C)c(S(=O)(=O)N2CCCC(OCC(=O)NCC3CCC(C(c4cccs4)N(C)C)CC3)C2)c(C)c1C (centres unmarked) [Example 60, N-((4-((dimethylamino)(thiophen-2-yl)methyl)cyclohexyl)methyl)-2-(1-(4-methoxy-2,3,6-trimethylphenylsulfonyl)piperidin-3-yloxy)acetamide] | 92 | – | 28 | –
11 | COc1ccc(S(=O)(=O)N2CCC(OCC(=O)NCCC3CCC(C(c4cccs4)N(C)C)CC3)C2)cc1OC (centres unmarked) [Example 94, 2-(1-(3,4-dimethoxyphenylsulfonyl)pyrrolidin-3-yloxy)-N-(2-(4-((dimethylamino)(thiophen-2-yl)methyl)cyclohexyl)ethyl)acetamide] | 88 | – | -5 | –
12 | COc1ccc(S(=O)(=O)N2CCCCC2CCOCC(=O)NC2CCC(C(c3cccc(F)c3)N(C)C)CC2)cc1 (centres unmarked) [Example 62, N-(4-((dimethylamino)(3-fluorophenyl)methyl)cyclohexyl)-2-(2-(1-(4-methoxyphenylsulfonyl)piperidin-2-yl)ethoxy)acetamide] | 96 | – | 40 | –
13 | COc1cc(C)c(S(=O)(=O)N2CCC(OCC(=O)NCC3CCC(C(c4ccccc4)N(C)C)CC3)C2)c(C)c1C (centres unmarked) [Example 44, N-((4-((dimethylamino)(phenyl)methyl)cyclohexyl)methyl)-2-(1-(4-methoxy-2,3,6-trimethylphenylsulfonyl)pyrrolidin-3-yloxy)acetamide] | 94 | – | 46 | –
14 | CN(C)C(c1cccs1)C1CCC(CCNC(=O)COCCN(C)S(=O)(=O)c2ccc(Cl)cc2)CC1 (centres unmarked) [Example 37, 2-(2-(4-chloro-N-methylphenylsulfonamido)ethoxy)-N-(2-(4-((dimethylamino)(thiophen-2-yl)methyl)cyclohexyl)ethyl)acetamide] | 90 | – | 40 | –
15 | COc1cc(C)c(S(=O)(=O)N2CCC(OCC(=O)NCC3CCC(C(c4cccs4)N(C)C)CC3)C2)c(C)c1C (centres unmarked) [Example 58, N-((4-((dimethylamino)(thiophen-2-yl)methyl)cyclohexyl)methyl)-2-(1-(4-methoxy-2,3,6-trimethylphenylsulfonyl)pyrrolidin-3-yloxy)acetamide] | 94 | – | 52 | –
16 | CN(C)C(c1cccs1)C1CCC(CNC(=O)COCCN(C)S(=O)(=O)c2cccc(C(F)(F)F)c2)CC1 (centres unmarked) [Example 92, N-((4-((dimethylamino)(thiophen-2-yl)methyl)cyclohexyl)methyl)-2-(2-(N-methyl-3-(trifluoromethyl)phenylsulfonamido)ethoxy)acetamide] | 86 | – | 31 | –
17 | CN(C)C(c1cccc(F)c1)C1CCC(CNC(=O)COCC2CCCCN2S(=O)(=O)c2ccc(Cl)c(Cl)c2)CC1 (centres unmarked) [Example 87, 2-((1-(3,4-dichlorophenylsulfonyl)piperidin-2-yl)methoxy)-N-((4-((dimethylamino)(3-fluorophenyl)methyl)cyclohexyl)methyl)acetamide] | 94 | – | 57 | –
18 | COc1ccc(S(=O)(=O)N2CCCCC2COCC(=O)NCC2CCC(C(c3cccs3)N(C)C)CC2)c(OC)c1 (centres unmarked) [Example 49, 2-((1-(2,4-dimethoxyphenylsulfonyl)piperidin-2-yl)methoxy)-N-((4-((dimethylamino)(thiophen-2-yl)methyl)cyclohexyl)methyl)acetamide] | 86 | – | 2 | –
19 | COc1cc(C)c(S(=O)(=O)N2CCN(CCOCC(=O)NCC3CCC(C(c4ccccc4)N(C)C)CC3)CC2)c(C)c1C (centres unmarked) [Example 61, N-((4-((dimethylamino)(phenyl)methyl)cyclohexyl)methyl)-2-(2-(4-(4-methoxy-2,3,6-trimethylphenylsulfonyl)piperazin-1-yl)ethoxy)acetamide] | 95 | – | 63 | –
